Measurements taken from ChEMBL document CHEMBL4610121, “Rapid Elaboration of Fragments into Leads by X-ray Crystallographic Screening of Parallel Chemical Libraries (REFiLX)” (J Med Chem, 2020).
In brackets after ≈: the same amount, converted by molar mass.

Columns and labels:
[1] = Solubility in PH 7.4 buffer by 1D 1H qNMR analysis; assay type: physicochemical
[2] = target: T1, Thiol:disulfide interchange protein DsbA (Escherichia coli (strain K12), UniProt P0AEG4); test: Binding affinity to uniformly labeled 15N oxidized Escherichia coli DsbA by 1H-15N HSQC NMR spectroscopy
T1 sequence (P0AEG4 whole entry): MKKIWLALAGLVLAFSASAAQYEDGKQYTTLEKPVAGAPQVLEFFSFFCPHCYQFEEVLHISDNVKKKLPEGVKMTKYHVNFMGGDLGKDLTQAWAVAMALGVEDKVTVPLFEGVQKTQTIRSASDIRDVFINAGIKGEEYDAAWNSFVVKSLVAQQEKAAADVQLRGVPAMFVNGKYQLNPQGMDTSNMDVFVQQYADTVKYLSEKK

| SMILES | solubility [1] | Kd [2] |
| --- | --- | --- |
| Cc1cc(Oc2ccc(CC(=O)N3CCN(C)C(=O)C3)cc2)ccc1C#N | 1000 µM (≈ 363 µg/mL) | 480 µM |
| Cc1cc(Oc2ccc(CC(=O)O)cc2)ccc1C#N | 1000 µM (≈ 267 µg/mL) |  |
| CCN(CCn1cccn1)C(=O)Cc1ccc(Oc2ccc(C#N)c(C)c2)cc1 | 250 µM (≈ 97.1 µg/mL) | 62 µM |
| CC(=O)N1CCN(C(=O)Cc2ccc(Oc3ccc(C#N)c(C)c3)cc2)CC1 | 1000 µM (≈ 377 µg/mL) | 430 µM |
| Cc1nc(CCN(C)C(=O)Cc2ccc(Oc3ccc(C#N)c(C)c3)cc2)no1 | 500 µM (≈ 195 µg/mL) | 230 µM |
| N#Cc1ccc(Oc2ccc(O)cc2)cc1 |  | > 1000 µM |
| Cc1cc(Oc2ccc(CC(=O)N3CCOCC3)cc2)ccc1C#N | 500 µM (≈ 168 µg/mL) | 365 µM |
| Cc1cc(Oc2ccc(CC(=O)NCCN3CCCN(C)CC3)cc2)ccc1C#N | 1000 µM (≈ 407 µg/mL) | 1100 µM |
| Cc1cc(Oc2ccc(CC(=O)N3CCOCC3C(=O)O)cc2)ccc1C#N (racemic) | 1000 µM (≈ 380 µg/mL) | 290 µM |
